Drawing on patent US7034055B1, “2-aminoindane analogs” (Prescient Neuropharma Inc., priority 1999, dated 2006), this text covers EC50 for two compounds.

The subject of assay [1] is Group II/III metabotropic glutamate receptors (mGluRs). Kind of assay: Cyclic AMP assay (ex vivo, forskolin-induced cAMP accumulation in rat cortical slices). The class given is cell-based, Sprague Dawley rat. The method, then:
The assay of cyclic AMP formation can be performed as described previously (Tovey et al., Clinica Chimica Acta, 56, 221-234, 1974). The assay can be modelled on the cyclic AMP assay kit available from Amersham, which in turn, is based on the assay created by Tovey et al. Briefly, samples are prepared from Sprague Dawley rat (225-250 g) cortical slices. Slices are incubated with the drug, and then challenged with forskolin to induce cyclic AMP release. Following termination of the reaction by boiling, the slices are homogenized and centrifuged. Samples of supernatant are then incubated for 2-3 hours with a known quantity of [^3H]cAMP and a binding protein. […] The resulting supernatant (containing free cyclic AMP) is then analyzed by liquid scintillation counting. The amount of unbound cyclic AMP can be calculated from a standard curve previously determined with various samples of free cyclic AMP. […]
The assay has been modeled on the cyclic AMP assay kit available from Amersham. […] Samples of supernatant were then incubated for 2-3 hours with a known quantity of [^3H]cAMP and a binding protein. […] The resulting supernatant (containing free cyclic AMP) was then analyzed by liquid scintillation counting. The amount of unbound cyclic AMP was calculated from a standard curve previously determined with various samples of free cyclic AMP. […]
A general note: Changes in cAMP serve as a functional read-out for many G protein-coupled receptors.

The subject of assay [2] is Group I metabotropic glutamate receptors (mGluRs). The assay is described as follows: Phosphatidylinositol assay (ex vivo, inositol phosphate accumulation in neonatal rat tissue slices). Type of assay: cell-based, Sprague Dawley rat. The settings on record: antagonist, versus ACPD, 45 minutes. The method, then:
Briefly, cross-chopped slices are prepared from neonatal Sprague Dawley rat tissue (age: p7-p14). The slices are pre-labelled with [^3H] myo-inositol. Following pre-labelling, the slices are incubated with the test drugs and standard (known Group I agonists i.e. ACPD) for a period of 45 minutes. The incubation is terminated by the addition of chloroform/methanol/HCl (100:200:2). The resulting mixture is separated into two phases by the addition of chloroform and distilled water. The aqueous fraction is applied to ion exchange columns, and inositol phosphates are eluted using 800 mM Ammonium Formate/100 mM Formic Acid. The eluent is then analyzed using liquid scintillation counting. The amount of inositol phosphate accumulation is expressed as a percentage of that induced by ACPD.
Group I metabotropic glutamate receptors (mGluRs) are positively coupled on inositol phosphate metabolism. Agonists at these receptors lead to an increase in intracellular free inositol phosphates, while antagonists inhibit the increase in intracellular free inositol phosphate induced by standard agonists (i.e. ACPD).
Cross-chopped slices were prepared from neonatal Sprague Dawley rat tissue (age: p7-p14). […] The eluent was then analyzed using liquid scintillation counting. The amount of inositol phosphate accumulation was expressed as a percentage of that induced by ACPD. […]

Each structure is given as a SMILES string. Where two headings read alike, the source gives them in different places.

As for `N[C@@]1(C(=O)O)Cc2ccccc2[C@H]1CC(=O)O` (relative stereo) [Cis-2 amino-2-carboxyindaneacetic acid (compound 8)], the EC50 was 0.0012 µM in assay [1] (antagonist, versus glutamate, read-out: Group II/III Antagonist EC50) and 2.2 µM in assay [2].

With `N[C@]1(C(=O)O)Cc2ccccc2[C@H]1CC(=O)O` (relative stereo) [Trans-2 amino-2-carboxyindaneacetic acid (compound 8)], the EC50 was determined as 0.11 µM in assay [1] (agonist, read-out: Group II/III Agonist EC50) and 1600 µM in assay [2].
